{
  "source": "patent US20220241311A1",
  "about": "“METHODS AND MATERIALS FOR TREATING GLYCOSYLATION DISORDERS” (priority 2018, published 2022)",
  "key": {"[1]": {"tested_on": "PGM1 deficient cell lines", "assay": "Lipid-linked and protein-linked oligosaccharide analysis"}, "[2]": {"tested_on": "PGM1-CDG patients", "assay": "Oral D-gal supplementation: laboratory studies in blood (liver transaminases, coagulation, glycoproteins, CK, glucose)", "format": "in vivo, human", "from_the_text": "The study design was an open-label prospective study. Patients with biochemically and genetically confirmed PGM1 deficiency were recruited into the study. Individuals with an existing diagnosis of aldolase B deficiency, galactosemia, hemolytic uremic syndrome, severe anemia, galactose intolerance, or intellectual disability were excluded from the study. Nine patients were enrolled in the study, five females and four males. Patient age ranged from 19 months to 21 years old at the time of enrollment (mean age 9.75 years). Informed written consent was obtained before the start of study. A primary end-point was to assess the safety and tolerability of oral D-gal supplementation and to identify physiological biomarkers that are responsive to D-gal supplementation in a heterogeneous genetic background. The effect of D-gal in PGM1-CDG patients was also monitored via glycomics. Secondary endpoints were the restoration of the plasma glycan subfractions, monitored via glycomics (Table 3), and normalization of antithrombin III activity and serum alanine transaminase (ALT) levels.\nThe D-gal intake was increased over the study period in increments as follows: weeks 0-6 (T0-T1), 0.5 g/kg per day; weeks 6-12 (T1-T2), 1.0 g/kg per day; weeks 12-18 (T2-T3), 1.5 g/kg per day (FIG. 2). The intake was increased gradually to reach the recommended maximum daily dose with minimal gastrointestinal irritation (diarrhea, stomachache, nausea) and metabolic side effects (presence of urinary galactitol).\nDietary assessment, clinical evaluation (general physical examination and anthropometric measurements), and laboratory and biochemical studies were completed every 6 weeks (T0, T1, T2 and T3).\nLiver transaminases (aspartate transaminase (AST) and alanine transaminase (ALT)), creatine kinase (CK), commonly assayed glycoproteins (thyroid stimulating hormone (TSH), thyroxine-binding globulin (TBG), and insulin-like growth factor binding protein 3 (IGF3BP)), and coagulation parameters (Factor IX, Factor XI, activated […] (aPTT), and anti-thrombin III (ATIII)), were measured in blood. Patent 1 had additional Factor XI, and XIII measurements. Serum galactose-1-phosphate and urine galactitol were measured to monitor safety and tolerability of galactose supplementation. Biochemical studies to evaluate changes in glycosylation included isoelectric focusing (IEF) of serum transferrin and glycomic analysis in blood by mass spectrometry.\nPatient 1 remained on D-gal 1 g/kg/day after the study period as D-gal is the only currently available compassionate treatment for PGM1-CDG. The parameters monitored during the study period, including additional coagulation factor measurements, have been followed as part of routine care (Table 4).\nQuantitative data are presented as the mean±standard error of the mean."}, "[3]": {"assay": "Blood concentration of D-gal after oral dose", "format": "in vivo, human", "conditions": "PGM1-CDG patients; 1-1.5 g/kg/day oral", "procedure": "An oral dose of 0.3 g/kg D-gal supplement leads to a blood concentration of D-gal at 0.75 mM, 1.0 g/kg D-gal dose corresponds to 2.25 mM peak concentration of D-gal in blood, while an oral dose of 1.5 g/kg galactose supplement leads to a blood peak concentration of 3.5 mM (Tegtmeyer et al. 2014). The blood concentration of free D-galactose in un-supplemented individuals was below 0.01 mM."}, "[4]": {"conditions": "patient 1, 1 g/kg/day for additional 12 months"}},
  "data": [
    {"compound": "O=C[C@H](O)[C@@H](O)[C@@H](O)[C@H](O)CO", "note": "[D-gal, D-galactose]", "values": [
      {"measurement": "PLO profile", "setting": "[1]; all four patient cell lines", "value": "In none of the patients galactose supplementation had an effect"},
      {"measurement": "Shortened LLO (Man9GlcNAc2-PP-dolichol)", "setting": "[1]; patient 8", "value": "No improvement"},
      {"measurement": "Shortened LLO (Man9GlcNAc2-PP-dolichol)", "setting": "[1]; patients 1, 2, cell-line 2013Y, 10 mM D-gal, LLO profile similar to control", "value": "reduction of shortened LLO"},
      {"measurement": "ALT levels", "setting": "[2]; T0 to T2, p=0.05", "value": "significantly decreased"},
      {"measurement": "ATIII, T0 vs T3", "setting": "[2]; all patient data, P=0.020", "value": "significant difference"},
      {"measurement": "AST", "setting": "[2]; all patients except patient 2, 18 weeks", "value": "did not normalize at 18 weeks, it fell below baseline"},
      {"measurement": "AST", "setting": "[2]; all patients, 6 weeks", "value": "moderately declined"},
      {"measurement": "AST", "setting": "[2]; all patients, 12 weeks vs baseline", "value": "declined by 23% to more than 10-fold"},
      {"measurement": "Creatine kinase and glucose levels", "setting": "[2]; during the study", "value": "fluctuated and remained abnormal"},
      {"measurement": "Frequency of hypoglycemic episodes", "setting": "[2]; during the study", "value": "decreased significantly in four patients"},
      {"measurement": "Laboratory parameters at 1.5 g/kg/day compared to 1 g/kg/day", "setting": "[2]; last 6 weeks of the trial", "value": "did not lead to significant improvement"},
      {"measurement": "ALT, aPTT, ATIII, TSH, TBG, long-term", "setting": "[2]; [4]", "value": "remained stable"},
      {"measurement": "Factor XI and Factor XIII, long-term", "setting": "[2]; [4]", "value": "returned to before-treatment levels"},
      {"measurement": "ATIII", "setting": "[2]; patient 1, 18 weeks", "value": "remained within normal range"},
      {"measurement": "Factor XI", "setting": "[2]; patient 1, after 12-18 weeks", "value": "normalized"},
      {"measurement": "Factor XIII", "setting": "[2]; patient 1, after 12-18 weeks", "value": "normalized"},
      {"measurement": "Creatine kinase decrease, long-term", "setting": "[2]; patient 1, over the course of one year", "value": "~80", "unit": "%"},
      {"measurement": "TSH", "setting": "[2]; patient 2 (abnormal baseline)", "value": "normalized at 18 weeks"},
      {"measurement": "ATIII vs baseline", "setting": "[2]; patient 2, 18 weeks", "value": "twofold higher than baseline"},
      {"measurement": "AST", "setting": "[2]; patient 2, 18 weeks, after discontinuing galactose for 2 weeks", "value": "spiked upwards, almost reaching baseline"},
      {"measurement": "ALT, excess over baseline", "setting": "[2]; patient 2, 18 weeks, intercurrent illness", "value": 18, "unit": "%"},
      {"measurement": "ATIII drop", "setting": "[2]; patient 2, following illness and cessation of galactose intake", "value": 30, "unit": "%"},
      {"measurement": "IGFBP-3", "setting": "[2]; patient 3", "value": "normalized at 18 weeks"},
      {"measurement": "TSH", "setting": "[2]; patient 5 (abnormal baseline)", "value": "normalized at 6 weeks and remained stable at 12 and 18 weeks"},
      {"measurement": "ALT decrease", "setting": "[2]; patient 5, 6 weeks", "value": 43, "unit": "%"},
      {"measurement": "ATIII", "setting": "[2]; patient 5, 6 weeks", "value": "transiently normalized"},
      {"measurement": "ALT above the upper limit of normal", "setting": "[2]; patient 5, 12 and 18 weeks", "value": 3, "unit": "%"},
      {"measurement": "ATIII below the lower limit of normal", "setting": "[2]; patient 5, 12 and 18 weeks", "value": 8, "unit": "%"},
      {"measurement": "IGFBP-3", "setting": "[2]; patient 6, 12 weeks", "value": "slight improvement"},
      {"measurement": "IGFBP-3 below the lower limit of normal", "setting": "[2]; patient 6, 12 weeks", "value": "about 50%"},
      {"measurement": "TBG below the lower limit of normal", "setting": "[2]; patient 6, 12 weeks", "value": 8, "unit": "%"},
      {"measurement": "TBG improvement", "setting": "[2]; patient 6, 12 weeks", "value": 30, "unit": "%"},
      {"measurement": "TBG higher than the upper limit of normal", "setting": "[2]; patient 9, 18 weeks", "value": 80, "unit": "%"},
      {"measurement": "TBG decline", "setting": "[2]; patient 9, 18 weeks, baseline twofold the upper limit of normal", "value": 12, "unit": "%"},
      {"measurement": "ALT", "setting": "[2]; patients 1, 2, 4, 7 (abnormal baseline)", "value": "normalized at 6 or 12 weeks"},
      {"measurement": "Factor IX levels", "setting": "[2]; patients 1, 2, 5, 6, 9, 18 weeks", "value": "remained normal"},
      {"measurement": "IGFBP-3", "setting": "[2]; patients 1 and 2", "value": "normalized at 12 weeks and remained stable at 18 weeks"},
      {"measurement": "TBG", "setting": "[2]; patients 1 and 2", "value": "normalized at 6 weeks and remained stable at 12 and 18 weeks"},
      {"measurement": "ATIII", "setting": "[2]; patients 1 and 2, 12 weeks", "value": "normalized"},
      {"measurement": "aPTT", "setting": "[2]; patients 1 and 7 (abnormal baseline)", "value": "normalized at 6 and 12 weeks, respectively"},
      {"measurement": "aPTT", "setting": "[2]; patients 2, 3, 5, 6 (normal baseline)", "value": "remained stable"},
      {"measurement": "Peak concentration of galactose in blood", "setting": "[3]", "value": "0.75 to 2", "unit": "mM"}
    ]}
  ]
}
